Source: patent US11026991B2, “Compositions and methods of use thereof to promote muscle growth and function” (Worlds Greatest Ingredients, LP, priority 2018, dated 2021)

Assays:
[1] = parameters: species or system human; conditions: in vivo
Protocol: Another exemplary study was done on a subject. The subject reported to the laboratory after an eight hour fast. Following and eight hour fast, the subject was given a standardized meal plan for two days prior to testing. The subject had their resting heart rate, blood pressure, body mass, height, and body measured using DEXA. Additionally, a urine sample was taken for baseline assessment of clinical safety, amino acid retention, and hydration status. A venous blood sample (10 mL) was be collected from a forearm vein prior to the subject being administrated, in a double-blind fashion a single dose of either leucine (2-gram dose), dileucine (2-gram dose) or leucine (1 grams)+dileucine (1 grams). Subsequent venous blood samples were to be collected 30, 60, 90, 120 and 240 minutes after ingestion of their assigned composition. After blood samples were taken the subject was given 250 mL of cold water to ingest. A second urine sample was taken at 240 minutes after ingestion of the composition. The methodology is shown schematically in FIG. 12.
All blood samples were processed to allow for determination of amino acid concentrations. […]
Plasma essential amino acids (threonine, methionine, lysine, histidine, valine, tryptophan, leucine, phenylalanine, isoleucine) were analyzed by LC/MS/MS and plasma dileucine was analyzed by GC/MS.

muscle protein synthesis = assay: Muscle protein synthesis from vastus lateralis biopsies (L-[ring-13C6]-phenylalanine incorporation); type: in vivo, human; conditions: 180 minutes post challenge, 2 g, versus subjects receiving leucine
Protocol: Another exemplary study was done to measure muscle protein synthesis. Two subjects came to the laboratory after a seven hour, overnight fast. A baseline blood sample was taken. Then a primed (2.0 μmol·kg−1), continuous infusion (0.05 μmol·kg−1·min−1) of L-[ring-13C6]-phenylalanine and L-[15N]-phenylalanine was started in one catheter.
Isotopes (from Cambridge Isotopes Inc., Andover, Mass.) were dissolved in 0.9% saline, filtered through a 0.2-μm filter, and infused using a calibrated syringe pump (from Harvard Apparatus, Holliston, Mass.). After obtaining steady-state enrichment, the L-[15N]-phenylalanine tracer infusion was stopped at t=0.
Repeated muscle biopsy sampling was done throughout the infusion trial for the determination of muscle protein synthesis (based on L-[ring-13C6]-phenylalanine incorporation) before and after the ingestion of 2 g leucine or 2 g dileucine. Biopsies (˜100 mg wet weight) were obtained from the middle region of the vastus lateralis under anesthetic (Lidocaine HCl 1%) with a 5 mm Bergstrom needle custom-modified for manual suction. A schematic representation of the experimental protocol can be found in FIG. 15.

[2] = Case study: plasma amino acids after ingestion of 2 g di-leucine (Ce) or 2 g leucine (C4); conditions: for increase in plasma lysine, times greater than the other condition: Ce over C4
Protocol: The subject came into the laboratory fasted prior to the testing days. […] On Day 1, they were randomized to consume 1 of the 2 conditions. Following, consumption of the fluid mixture (8 oz. water), plasma amino acids were measured at 30, 60, 90, and 120 minutes. A 72-hour washout took place followed by the 2nd condition following the same procedures.
The dosage used in this study was either 2 grams of di-leucine (condition Ce) or 2 grams of leucine (condition C4).

- plasma dileucine levels [1]: measurable increases
- increases in total EAA concentration relative to baseline (range) ([2]; 30 and 60 mPost): 7.2% to 26.9%
- increase in total EAA concentration, times greater than Condition C4 ([2]; 30 mPost): 4 ×
- increase in total plasma BCAAs, times greater than Condition C4 ([2]; 30 mPost): 2.9 ×
- Plasma Isoleucine Delta Change Relative to Baseline Values ([2]; 30 mPost ingestion of 2 g): -11.31 nmol/L
- Plasma Isoleucine Percent Change Relative to Baseline Values ([2]; 30 mPost ingestion of 2 g): −16.0%
- Plasma Lysine Delta Change Relative to Baseline Values ([2]; 30 mPost ingestion of 2 g): 39.97 nmol/L
- Plasma Lysine Percent Change Relative to Baseline Values ([2]; 30 mPost ingestion of 2 g): 29.7%
- Plasma Methionine Delta Change Relative to Baseline Values ([2]; 30 mPost ingestion of 2 g): 2.32 µM
- Plasma Methionine Percent Change Relative to Baseline Values ([2]; 30 mPost ingestion of 2 g): 10.1%
- Plasma Phenylalanine Delta Change Relative to Baseline Values ([2]; 30 mPost ingestion of 2 g): 3.55 nmol/L
- Plasma Phenylalanine Percent Change Relative to Baseline Values ([2]; 30 mPost ingestion of 2 g): 6.0%
- Plasma Threonine Delta Change Relative to Baseline Values ([2]; 30 mPost ingestion of 2 g): 7.09 µM
- Plasma Tryptophan Delta Change Relative to Baseline Values ([2]; 30 mPost ingestion of 2 g): -0.83 nmol/L
- Plasma Tryptophan Percent Change Relative to Baseline Values ([2]; 30 mPost ingestion of 2 g): −1.3%
- Plasma Valine Delta Change Relative to Baseline Values ([2]; 30 mPost ingestion of 2 g): -13.31 nmol/L
- Plasma Valine Percent Change Relative to Baseline Values ([2]; 30 mPost ingestion of 2 g): −3.6%
- Total Plasma BCAA Delta Change Relative to Baseline Values ([2]; 30 mPost ingestion of 2 g): 213 µM
- Total Plasma BCAA Percent Change Relative to Baseline Values ([2]; 30 mPost ingestion of 2 g): 35.7%
- Total Plasma EAA Delta Change Relative to Baseline Values ([2]; 30 mPost ingestion of 2 g): 265.57 nmol/L
- Total Plasma EAA Percent Change Relative to Baseline Values ([2]; 30 mPost ingestion of 2 g): 26.9%
- increase in plasma lysine, times greater than the other condition ([2]; 30 mPost): 2.8 ×
- Plasma Isoleucine Delta Change Relative to Baseline Values ([2]; 60 mPost ingestion of 2 g): -14.21 nmol/L
- Plasma Isoleucine Percent Change Relative to Baseline Values ([2]; 60 mPost ingestion of 2 g): −20.1%
- Plasma Lysine Delta Change Relative to Baseline Values ([2]; 60 mPost ingestion of 2 g): 41.31 nmol/L
- Plasma Lysine Percent Change Relative to Baseline Values ([2]; 60 mPost ingestion of 2 g): 30.7%
- Plasma Methionine Delta Change Relative to Baseline Values ([2]; 60 mPost ingestion of 2 g): 1.01 µM
- Plasma Methionine Percent Change Relative to Baseline Values ([2]; 60 mPost ingestion of 2 g): 4.4%
- Plasma Phenylalanine Delta Change Relative to Baseline Values ([2]; 60 mPost ingestion of 2 g): 2.02 nmol/L
- Plasma Phenylalanine Percent Change Relative to Baseline Values ([2]; 60 mPost ingestion of 2 g): 3.4%
- Plasma Threonine Delta Change Relative to Baseline Values ([2]; 60 mPost ingestion of 2 g): 6.11 µM
- Plasma Tryptophan Delta Change Relative to Baseline Values ([2]; 60 mPost ingestion of 2 g): -5.10 nmol/L
- Plasma Tryptophan Percent Change Relative to Baseline Values ([2]; 60 mPost ingestion of 2 g): −7.9%
- Plasma Valine Delta Change Relative to Baseline Values ([2]; 60 mPost ingestion of 2 g): -52.63 nmol/L
- Plasma Valine Percent Change Relative to Baseline Values ([2]; 60 mPost ingestion of 2 g): −14.1%
- Total Plasma BCAA Delta Change Relative to Baseline Values ([2]; 60 mPost ingestion of 2 g): 26 µM
- Total Plasma BCAA Percent Change Relative to Baseline Values ([2]; 60 mPost ingestion of 2 g): 4.3%
- Total Plasma EAA Delta Change Relative to Baseline Values ([2]; 60 mPost ingestion of 2 g): 71.33 nmol/L
- Total Plasma EAA Percent Change Relative to Baseline Values ([2]; 60 mPost ingestion of 2 g): 7.2%
- increase in plasma lysine, times greater than the other condition ([2]; 60 mPost): 5.7 ×
- Plasma Isoleucine Delta Change Relative to Baseline Values ([2]; 90 mPost ingestion of 2 g): -26.67 nmol/L
- Plasma Isoleucine Percent Change Relative to Baseline Values ([2]; 90 mPost ingestion of 2 g): −37.7%
- Plasma Lysine Delta Change Relative to Baseline Values ([2]; 90 mPost ingestion of 2 g): -25.31 nmol/L
- Plasma Lysine Percent Change Relative to Baseline Values ([2]; 90 mPost ingestion of 2 g): −18.8%
- Plasma Methionine Delta Change Relative to Baseline Values ([2]; 90 mPost ingestion of 2 g): -0.00173 µM
- Plasma Methionine Percent Change Relative to Baseline Values ([2]; 90 mPost ingestion of 2 g): −7.5%
- Plasma Phenylalanine Delta Change Relative to Baseline Values ([2]; 90 mPost ingestion of 2 g): -5.98 nmol/L
- Plasma Phenylalanine Percent Change Relative to Baseline Values ([2]; 90 mPost ingestion of 2 g): −10.1%
- Plasma Threonine Delta Change Relative to Baseline Values ([2]; 90 mPost ingestion of 2 g): -0.0034 µM
- Plasma Threonine Percent Change Relative to Baseline Values ([2]; 90 mPost ingestion of 2 g): −3.2%
- Plasma Tryptophan Delta Change Relative to Baseline Values ([2]; 90 mPost ingestion of 2 g): -6.60 nmol/L
- Plasma Tryptophan Percent Change Relative to Baseline Values ([2]; 90 mPost ingestion of 2 g): −10.2%
- Plasma Valine Delta Change Relative to Baseline Values ([2]; 90 mPost ingestion of 2 g): -79.42 nmol/L
- Plasma Valine Percent Change Relative to Baseline Values ([2]; 90 mPost ingestion of 2 g): −21.3%
- Total Plasma BCAA Delta Change Relative to Baseline Values ([2]; 90 mPost ingestion of 2 g): -0.07162 µM
- Total Plasma BCAA Percent Change Relative to Baseline Values ([2]; 90 mPost ingestion of 2 g): −12.0%
- Total Plasma EAA Delta Change Relative to Baseline Values ([2]; 90 mPost ingestion of 2 g): -114.65 nmol/L
- Total Plasma EAA Percent Change Relative to Baseline Values ([2]; 90 mPost ingestion of 2 g): −11.6%
- Plasma Isoleucine Delta Change Relative to Baseline Values ([2]; 120 mPost ingestion of 2 g): -24.37 nmol/L
- Plasma Isoleucine Percent Change Relative to Baseline Values ([2]; 120 mPost ingestion of 2 g): −34.4%
- Plasma Lysine Delta Change Relative to Baseline Values ([2]; 120 mPost ingestion of 2 g): 25.68 nmol/L
- Plasma Lysine Percent Change Relative to Baseline Values ([2]; 120 mPost ingestion of 2 g): 19.1%
- Plasma Methionine Delta Change Relative to Baseline Values ([2]; 120 mPost ingestion of 2 g): -0.00168 µM
- Plasma Methionine Percent Change Relative to Baseline Values ([2]; 120 mPost ingestion of 2 g): −7.3%
- Plasma Phenylalanine Delta Change Relative to Baseline Values ([2]; 120 mPost ingestion of 2 g): -1.89 nmol/L
- Plasma Phenylalanine Percent Change Relative to Baseline Values ([2]; 120 mPost ingestion of 2 g): −3.2%
- Plasma Threonine Delta Change Relative to Baseline Values ([2]; 120 mPost ingestion of 2 g): -0.00207 µM
- Plasma Threonine Percent Change Relative to Baseline Values ([2]; 120 mPost ingestion of 2 g): −1.9%
- Plasma Tryptophan Delta Change Relative to Baseline Values ([2]; 120 mPost ingestion of 2 g): -13.23 nmol/L
- Plasma Tryptophan Percent Change Relative to Baseline Values ([2]; 120 mPost ingestion of 2 g): −20.5%
- Plasma Valine Delta Change Relative to Baseline Values ([2]; 120 mPost ingestion of 2 g): -85.53 nmol/L
- Plasma Valine Percent Change Relative to Baseline Values ([2]; 120 mPost ingestion of 2 g): −22.9%
- Total Plasma BCAA Delta Change Relative to Baseline Values ([2]; 120 mPost ingestion of 2 g): -0.06614 µM
- Total Plasma BCAA Percent Change Relative to Baseline Values ([2]; 120 mPost ingestion of 2 g): −11.1%
- Total Plasma EAA Delta Change Relative to Baseline Values ([2]; 120 mPost ingestion of 2 g): -59.34 nmol/L
- Total Plasma EAA Percent Change Relative to Baseline Values ([2]; 120 mPost ingestion of 2 g): −6.0%
SMILES: CC(C)C[C@H](NC(=O)[C@@H](N)CC(C)C)C(=O)O [Ce, L-Leucyl-L-leucine]
- myofibrillar FSR (muscle protein synthesis) (muscle protein synthesis): significantly increased
